Assay: gradient 5% acetonitrile 3 min, to 50% in 2 min, to 85% in 15 min, held 3 min, 100 µL/min
Settings: column: Zorbax Extend-C18 2.1 x 50 mm; eluents: water / acetonitrile, 0.1% formic acid
How it was run: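 Values are retention times taken from adduct peaks that software picked and an analyst inspected. The pure standards were run as mixtures of ~100 molecules on HPLC linked to a quadrupole time-of-flight mass spectrometer, in positive and negative ionization mode. A Zorbax Extend-C18 column (2.1 × 50 mm, 1.8 μm) was used at 100 μL/min with water and acetonitrile, each including 0.1% formic acid.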

Row | SMILES | RP-LC retention time [s]
1 | CC(C)Cn1c(=O)c(N2CCN(S(=O)(=O)c3ccccc3F)CC2)nc2ccncc21 | 743
2 | CCOCC(=O)Nc1ccc(-c2nnc(CC)o2)cc1 | 657
3 | O=C(NCC1CC1)C1CCN(C(=O)c2ncn3c2COC(c2ccc(F)cc2)C3)CC1 (configuration not stated) | 699
4 | O=C(NCCn1nnc2cc(C(=O)N3CCCCC3)ccc21)NC1CCCC1 | 661
5 | O=C(CCCn1c(=O)c2cccn2c2ccc(F)cc21)NCCc1c[nH]c2ccccc12 | 858
6 | COc1ccc(CN2CCc3nc(N4CCN(c5ccccc5OC)CC4)ncc3C2)cc1 | 762
7 | CCc1nc(-c2csc(S(=O)(=O)N3CCC(C(=O)NC4CCCC4)CC3)c2)no1 | 880
8 | CC(=O)N1CCc2cc(N3CC(C(=O)NC4CCCCCC4)CC3=O)ccc21 (configuration not stated) | 723
9 | CCn1c(=O)c2cc(C(=O)Nc3cccc(C(F)(F)F)c3)nn2c2ccccc21 | 1080
10 | CCCNC(=O)CCc1c(C)n(C)c2nc(-c3ccccc3)nn2c1=O | 665
11 | CC(C)C(=O)N1CCCCCCN(C)C(=O)[C@@H]2CCC[C@@H]21 | 760
12 | CCNc1cc(N2CCC(CCC(=O)Nc3ccc(C)cc3C)CC2)ncn1 | 686
13 | CCN(C(=O)Cc1c(C(=O)O)c(C)cn1CC)c1ccccc1 | 907
14 | COc1ccc(-c2cc(C(=O)N3CCCC3c3c(C)noc3C)on2)cc1 (configuration not stated) | 856
15 | O=C(NCc1ccccc1C(F)(F)F)C1CCCN(c2ncnc3nn(-c4ccc(F)cc4)cc23)C1 (configuration not stated) | 754
16 | O=C(c1nnc(-c2ccc(S(=O)(=O)N3CCCC3)cc2)o1)N1CCOCC1 | 739
17 | C[C@@H]1CN(C(=O)c2ccco2)C[C@H]1c1nc(-c2ccccc2)no1 | 936
18 | CCN1CCN(c2cc(C)c3cc(NC(=O)c4ccc([N+](=O)[O-])c(C)c4)ccc3n2)CC1 | 621
19 | CCOC(=O)C(=O)NCC1CCCN1S(=O)(=O)c1ccc(OC)cc1 (configuration not stated) | 700
20 | Cc1nc(-c2ccnc(N3CCCC3)c2)no1 | 572
21 | CCc1cccc(NC(=O)Cn2nc3c(N(C)C4CCCCC4)nccn3c2=O)c1 | 851
22 | CC(=O)N1CCCC1CCc1ncc(C)n1C(C)C (configuration not stated) | 577
23 | O=C(Nc1ccc2c(c1)OCO2)Nc1ccc2nc3n(c(=O)c2c1)CCCC3 | 651

Row | SMILES | RP-LC retention time [s]
24 | COc1ccc(C2(C(=O)Nc3cc(-c4nnc(C)o4)sc3C)CC2)cc1 | 989
25 | CCc1nc(-c2csc(S(=O)(=O)N3CCCC(C(=O)Nc4ccc(Cl)cc4)C3)c2)no1 (configuration not stated) | 1100
26 | Cc1ccn2c(NC(=O)c3cccc(F)c3)c(-c3ccccc3)nc2c1 | 670
27 | Cc1cc(-c2csc(S(=O)(=O)N3CCN(C(c4ccccc4)c4ccccc4)CC3)c2)on1 | 1200
28 | COC(=O)CNC(c1ccccc1)c1cc(C)ccc1NS(=O)(=O)c1ccc(C)cc1 (configuration not stated) | 904
29 | Cc1nc2cc(-c3ccc(Cl)cc3)nn2c(C)c1CCC(=O)N1CCN(c2ccccn2)CC1 | 727
30 | COC(=O)c1cccc(NC(=O)c2c[nH]c3ncccc23)c1 | 708
31 | O=C(c1ccc2c(c1)OCO2)N1CCN(c2cc(-c3cccs3)[nH]n2)CC1 | 732
32 | CC1CC(C)CN(S(=O)(=O)c2cccc(-c3cn4cc(Cl)ccc4n3)c2)C1 (configuration not stated) | 1090
33 | O=C(Cn1nc(N2CCCCCC2)c2ccccc2c1=O)Nc1ccccc1F | 1120
34 | Cc1ccc(NC(=O)N2CCC(OC3CCN(S(C)(=O)=O)CC3)CC2)c(C)c1 | 743
35 | O=C(CCc1conc1-c1ccc(F)cc1)NC1CCCCCC1 | 969
36 | O=C(Cn1nc2nc(N3CCCC3)ccn2c1=O)NCc1ccc(F)cc1Cl | 688
37 | COc1cccc(NC(=O)CN2CCC(c3nc(-c4cccs4)no3)CC2)c1 | 680
38 | CN(Cc1ccccc1)C(=O)c1ccc2c(c1)N(Cc1ccccc1)C(=O)CO2 | 878
39 | Cc1cnc(C)n1CC1CCN(S(=O)(=O)c2ccc(C#N)cc2)C1 (configuration not stated) | 628
40 | O=C(NC1CCCCCC1)C1CCCN(c2ncnc3c2oc2ccccc23)C1 (configuration not stated) | 815
41 | CCCc1cc(N2CCN(C(=O)c3ccccc3)CC2)nc2nncn12 | 608
42 | COCCNC(=O)C1CCCN(c2cnc3nccnc3c2)C1 (configuration not stated) | 588
43 | CCCN(CCC)c1nc(-c2ccc(OC)cc2)nc2ccccc12 | 896
44 | CCN1CCN(c2c(C(=O)c3ccc(OC)cc3)cnc3cc4c(cc23)OCCO4)CC1 | 551
45 | COc1ccc(NC(=O)c2ccc(-n3cnc(NC(=O)C4CC4)c3)cc2)cc1OC | 645
46 | Cc1c(C(=O)NCC2CCCO2)cnn1-c1cc(-c2nc(C3CC3)no2)ccn1 (configuration not stated) | 837

Row | SMILES | RP-LC retention time [s]
47 | O=C(CCNc1cnc2cnccn12)Nc1ccc(N2CCOCC2)cc1 | 534
48 | CC(C)NC(=O)C1Cn2cccc2C(=O)N1 (configuration not stated) | 578
49 | CCc1ccc(NC(=O)Nc2cccn3nc(C)nc23)cc1 | 869
50 | CCOc1ccc(CC(=O)N2CCCC2c2nc(-c3ccccc3)no2)cc1OCC (configuration not stated) | 1010
51 | CCC(C(=O)N1CCN(CC)CC1)n1c2ccccc2c2cnn(C)c(=O)c21 (configuration not stated) | 619
52 | CC(Oc1ccccc1)C(=O)N1CCCn2nc(-c3cccs3)cc2C1 (configuration not stated) | 844
53 | O=C(NCCN1CCCC1)C1CCN(c2nccnc2Sc2ccccc2)CC1 | 645
54 | CC(=O)N1CCc2cc(N3CC(C(=O)Nc4cccc(OC(F)(F)F)c4)CC3=O)ccc21 (configuration not stated) | 806
55 | CCc1ccc(NC(=O)C2CCN(S(=O)(=O)c3cn(C)cn3)CC2)cc1 | 734
56 | COc1ccccc1CC(=O)N1CCC2(CC1)N=C(c1ccc(Cl)cc1)NO2 | 884
57 | CCOC(=O)c1c(C)oc2nc(C)nc(NCCCN3CCN(c4ccccc4)CC3)c12 | 826
58 | O=C(NOCCc1ccccc1)Nc1ccc([N+](=O)[O-])cc1 | 843
59 | COc1ccccc1CNS(=O)(=O)c1cc(-c2cc(C(F)(F)F)on2)sc1C | 1120
60 | Cc1ccc(Cl)cc1N1CCN(C(=O)CN2C(=O)CN(C)C(=O)c3ccccc32)CC1 | 867
61 | COc1cccc(CN2CCC([C@H]3[C@@H](OC)C(=O)N3C(C)C)CC2)n1 | 602
62 | NC(=O)C1CCN(C2CC(=O)N(c3ccccc3Sc3ccccc3)C2=O)CC1 (configuration not stated) | 650
63 | Cc1ccc(NC(=O)C2(C)Oc3cccnc3NC2=O)cc1C (configuration not stated) | 760
64 | CCCCN(C)CCNC(=O)c1cc2cc3ccc(OC)cc3nc2o1 | 641
65 | Cc1ccc(-n2nc(N3CCCC(C(=O)NCc4ccccc4)C3)ccc2=O)cc1Cl (configuration not stated) | 901
66 | CCCn1c(=O)c(N2CCN(C(=O)CC(C)C)CC2)nc2ccccc21 | 1010
67 | CCn1nccc1-c1cccc(-c2noc(CNS(=O)(=O)c3ccc(F)cc3)n2)c1 | 931

From the METLIN SMRT retention time set (Domingo-Almenara et al. 2019)
